These results are taken from PubChem BioAssay AID540268 (Broad Institute, 2011).

Molecules are shown by their SMILES. Several values for one entry are separate records, joined by “and”; a condition that tells them apart may be missing. Identical values can stand only once.

This test can be described thus: reduced viability of parasite-Hsp90 expressing yeast – ATP luminescence, 48 h, cherry-picked samples, anti-malarial Hsp90 inhibitor project, dose response (AID 540268). To be noted: yeast expressing the parasite Hsp90, ATP luminescence.
On to `N/C(Cc1ccc(Cl)c(Cl)c1)=N\OC(=O)c1cccs1`, for which the AC50 was 2.22 µM.
Next, `COc1ccc(NC(=O)/C(Cl)=C(/Cl)S(=O)Cc2ccc(Cl)cc2)cn1` (configuration not stated): 0.837 µM; `[O-][n+]1cccc2c(Br)cc(Br)c(O)c21`: 3.55 µM; `CCCCCCCCCCCCCCCC[n+]1ccccc1`: 4.03 µM and 3.43 µM.
As for `C=CCc1c(C)c(C#N)c2nc3ccccc3n2c1NCCN(C)C`, the AC50 is 4.58 µM.
Next, `O=C1Nc2ccc(Br)cc2C12NNc1ccccc1O2` (configuration not stated): 1.46 µM; `CC(=NNC(=S)N1CCCCCC1)c1ccccn1`: 3.89 µM.
Take `CCCNC(=O)c1nnsc1S(=O)c1ccc(Cl)cc1` (configuration not stated): the AC50 was 1.53 µM.
The value for `O=C(Nc1ccc(F)cc1)c1nc(S(=O)(=O)Cc2ccccc2)ncc1Cl` was 5.68 µM.
Regarding `Cc1ccc(-n2c(Cl)c(Cl)nc(Cl)c2=O)cc1`, the AC50 is 1.2 µM.
Take `N/C(=N\OC(=O)c1ccc2ccccc2c1)c1ccccc1Cl`: the AC50 was 4.46 µM.
The value for `Cc1cccc(CS(=O)(=O)c2ncc(Cl)c(C(=O)Nc3ccc(F)cc3)n2)c1` was 2.92 µM.
Turning to `Cc1cc(/C=C2\SC(=S)NC2=O)c(C)n1-c1cccc(O)c1`, the AC50 was 8.7 µM.
In the case of `CCOC(=O)COc1ccc2ccccc2c1/C=C/[N+](=O)[O-]`, the concentration at half-maximal activity (AC50) is 4.46 µM.
The value for `Cc1ccccc1CS(=O)(=O)c1ncc(Cl)c(C(=O)Nc2ccc(F)cc2)n1` was 4.06 µM; that for `COc1ccc(C(=O)O/N=C2\C(=O)N(C)c3ccccc32)cc1` was under 0.195 µM; that for `CCCCNc1nc(N)nc(-c2cc(Cl)ccc2O)n1` was 4.58 µM.
Turning to `CCCCC(=O)NC(c1ccco1)c1cc(Cl)c2cccnc2c1O` (configuration not stated), the AC50 is 4.6 µM.
Next, `O=C(c1ccc(Br)cc1)C(CN1CCOCC1)c1ccccc1` (configuration not stated): 2.91 µM; `CC(=O)NC(c1ccc(Cl)cc1)c1ccc2cccnc2c1O` (configuration not stated): 2.58 µM; `CC(=O)N(C(C)=O)N1C(=O)/C(=C/c2ccc(Cl)cc2)SC1=S`: 3.28 µM.
`CC(C)Oc1ccc(C(=O)/C=C2/C(=O)Nc3ccccc32)cc1`: the AC50 was 2.62 µM.
Consider `COc1ccc(SN=C2C(C)=CC(=O)C=C2C)cc1`, for which the AC50 was 5.7 µM.
Next, `CCCC(=O)NC(c1ccc2c(c1)OCO2)c1cc(Cl)c2cccnc2c1O` (configuration not stated): 4.45 µM.
For `CCOC(=O)/C(=C/c1ccc(OC(=O)c2ccccc2)cc1)C(C)=O`, the AC50 was 1.43 µM.
Consider `CCCCCCC(Cl)(Cn1ccnc1)c1ccccc1` (configuration not stated), for which the AC50 is 8.41 µM.
As to `CC(=O)C1=C(c2ccc(Br)cc2)C(=O)c2ccccc2C1=O`, the AC50 is 7.82 µM.
Turning to `O=C(CC(n1cncn1)C(Cl)(Cl)Cl)c1ccc([N+](=O)[O-])cc1` (configuration not stated), the AC50 is 4.42 µM.
For the molecule `Oc1ccc(N=Nc2ccc3ccccc3c2)cc1`, the AC50 is 4.26 µM.
For the molecule `Oc1c(Cl)cc(Cl)c(Cl)c1Cc1c(O)c(Cl)cc(Cl)c1Cl`, the AC50 is 0.676 µM.
The value for `Cn1c2ccccc2c2ccc3c(c21)C(=O)C=CC3=O` was 8.02 µM.
As for `CCOC(=O)C(=Cc1ccc(-n2cncn2)cc1)C(=O)OCC`, the AC50 is 6.51 µM.
As for `COc1ccc(C(C[N+](=O)[O-])c2c(C)[nH]n(-c3ccccc3)c2=O)cc1` (configuration not stated), the AC50 is 7.77 µM.
The value for `Cn1cncc1C#Cc1c(-c2ccsc2)sc2ccccc12` was 7.55 µM; that for `O=[N+]([O-])c1cc(Cc2ccccc2)cc(C=Nc2ccc(N3CCOCC3)cc2)c1O` was 3.46 µM.
The value for `CCCCN(CCCC)CCC(O)c1cc2c(Cl)cc(Cl)cc2c2cc(C(F)(F)F)ccc12` (configuration not stated) was 7.42 µM.
Turning to `O=[N+]([O-])c1cc(Cl)c(O)c2ncccc12`, the AC50 was 1.81 µM.
As to `COC[C@H]1OC(=O)c2coc3c2[C@@]1(C)C1=C(C3=O)[C@@H]2CCC(=O)[C@@]2(C)C[C@H]1OC(C)=O`, the AC50 was 0.215 µM.
Next, `CCC(C)n1ncn(-c2ccc(N3CCN(c4ccc(OCC5COC(Cn6cncn6)(c6ccc(Cl)cc6Cl)O5)cc4)CC3)cc2)c1=O` (configuration not stated): under 0.195 µM; `Cc1cc(C2CCCCC2)n(O)c(=O)c1`: 1.19 µM.
In the case of `O=C(N/N=C/c1sc2ccccc2c1O)c1cccc2ccccc12`, the AC50 was 17 µM.
The value for `Cc1ccc(/C=C/C(=O)c2ccccc(=O)c2O)cc1C` was 8.01 µM; that for `O=C(c1ccccc1)c1ccccc1N1C(=O)C=CC1=O` was 1.71 µM; that for `CCCCCCCCC/C(=N\O)c1ccccn1` was 3.65 µM.
The value for `COc1cc2c(cc1/C=C/[N+](=O)[O-])OCO2` was 3.11 µM; that for `Cc1ccc(C2=NC(C)(C)N=C2SCC(=O)Nc2ccc(Cl)cc2)cc1` was 26.2 µM.
Next, `Cc1ccc(NN2C(=O)C=C(c3ccc(Cl)cc3)C2=O)cc1`: under 0.195 µM; `Oc1c(CN2CCN(c3ccc(F)cc3)CC2)cc(Cl)c2cccnc12`: under 0.195 µM; `CN(c1ccccc1)c1ccc(/C=C/[N+](=O)[O-])cc1`: 5.24 µM.
For the molecule `O=c1c(-c2ccccc2)c(-c2ccccc2)oc2cc(O)cc(O)c12`, the AC50 is 8.72 µM.
As for `CC(=NNC(=S)Nc1cccc(Cl)c1)c1ccccn1`, the AC50 was 16.6 µM.
The value for `COc1ccc2c(c1)OC[C@H]1[C@H]2N2C(=O)c3cc(Cl)ccc3NC(=O)[C@@]2(C)[C@H]1c1ccccc1` was 1.12 µM; that for `CC(Oc1ccc(Cl)cc1)C(=O)NNC(=S)NC(=O)c1ccco1` (configuration not stated) was 1.94 µM.
`Oc1c(C(Nc2ccccn2)c2cccnc2)cc(Cl)c2cccnc12` (configuration not stated): the AC50 was 8.09 µM.
Next, `COc1ccc(OC)c(NC(=O)Nc2ccc(O)c3ccccc23)c1`: under 0.195 µM.
Consider `O=S(=O)(NC1CC2CCC1C2)c1ccc(Cl)cc1` (configuration not stated), for which the AC50 is 3.46 µM.
With `O=c1c2c3c(sc2ncn1/N=C/c1ccc([N+](=O)[O-])o1)CCCC3`, the AC50 was 2.66 µM.
`O=C(NCc1ccc2c(c1)OCO2)c1ccc(Br)cc1`: the AC50 is 4.46 µM.
Take `O=C1C=CC(=O)N1c1ccc(O)cc1`: the AC50 is 1.44 µM.
As for `Cc1[nH]n(-c2ccccc2)c(=O)c1C(C[N+](=O)[O-])c1ccc(Br)cc1` (configuration not stated), the AC50 is 8.54 µM.
Next, `O=C(O)c1ccc(N/N=C/c2ccc(-c3ccccc3)cc2)cc1`: 4.22 µM.
Next, `CC(=O)NC(c1ccc(C)cc1)c1cc(Cl)c2cccnc2c1O` (configuration not stated): 4.09 µM.
Next, `Clc1ccc2[nH]c3c(c2c1)CCc1cn[nH]c1-3`: 8.79 µM; `Oc1c(C(c2ccccc2)N2CCOCC2)ccc2ccccc12` (configuration not stated): 6.53 µM; `CCCCC(=O)NC(c1cccc([N+](=O)[O-])c1)c1ccc2cccnc2c1O` (configuration not stated): 2.62 µM.
In the case of `COC(=O)C1CCN(C2CC(=O)N(c3cc(C)cc(C)c3)C2=O)CC1` (configuration not stated), the AC50 was 7.68 µM.
Next, `COc1ccccc1NS(=O)(=O)c1cc(C(=O)N2CC(C)CC(C)C2)ccc1C` (configuration not stated): 5.81 µM; `Oc1ccc(/C=C/c2ccc3cccc(O)c3n2)cc1Br`: 4.26 µM.
With `COc1cccc(N=Nc2ccc3cccnc3c2O)c1`, the AC50 is 2.39 µM.
Next, `N/C(Cc1ccc(Cl)cc1)=N\OC(=O)c1cccc2ccccc12`: 2.19 µM; `Cc1cc2n(n1)C(c1c[nH]c3ccccc13)Nc1ccccc1-2` (configuration not stated): 2.67 µM.
The value for `CCC(C)(C)c1ccc(OCCCC[n+]2cccc(C)c2C)c(C(C)(C)CC)c1` was 4.06 µM.
The value for `Cc1cccc(N2C(=O)/C(=C\c3ccc(OC(F)F)cc3)c3ccccc3C2=O)c1` was 4.64 µM.
As for `CCCCCCC(=O)N(O)C1CC(=O)N(c2ccc(Cl)cc2)C1=O` (configuration not stated), the AC50 was 1.65 µM.
On to `CCOc1ccc2c(ccc(/C=C/c3cc(C)c4cccnc4c3O)[n+]2C)c1`, for which the AC50 is 4.11 µM.
As for `CCN1/C(=C/c2ccc3cc(C)ccc3[n+]2CC)Sc2ccccc21`, the AC50 was 8.11 µM.
Next, `O=C1NC(=S)NC(=O)C1=Cc1ccc(Br)s1`: 4.48 µM; `O=c1cc(-c2ccc(C3CCCCC3)cc2)[nH][nH]1`: 7.7 µM; `C/C(=N\Nc1nc2ccccc2s1)c1ccc(Br)s1`: 4.47 µM.
Take `O=[N+]([O-])c1ccc(O)c(/C=N/Nc2ccccn2)c1`: the AC50 is 3.31 µM.
The value for `CCC(=O)NC(c1cccs1)c1ccc2cccnc2c1O` (configuration not stated) was 7.69 µM; that for `O=C(/C=C/c1cccc([N+](=O)[O-])c1)c1ccco1` was 4.27 µM.
For `O=C(/C=C/c1ccccc1)CCN1CCOCC1`, the AC50 was 2.47 µM.
For the molecule `CCCOC(=O)c1ccc(Oc2cn[nH]c2-c2ccc(OC)cc2O)cc1`, the AC50 was 6 µM.
`O=[N+]([O-])c1cc(/C=N/O)ccc1Oc1ccccc1Cl`: the AC50 was 2.86 µM.
With `COc1ccc(C(=O)/C=C2\C(=O)Nc3ccc(Br)cc32)cc1`, the AC50 was 2.22 µM.
For the molecule `CC(C)(C)c1ccc(-n2nc(C#N)c(Cl)cc2=O)cc1`, the AC50 was 4.31 µM.
With `O=C1CCCN1CCC1CCN(C2CC(=O)N(c3ccc(Cl)cc3)C2=O)CC1` (configuration not stated), the AC50 was 4.79 µM.
The value for `Cn1ncc2c(Nc3cccc(Cl)c3)nc(Nc3cccc(Cl)c3)nc21` was 2.82 µM.
The value for `Cc1ccc(S(=O)(=O)Nc2ccc3cc([N+](=O)[O-])ccc3c2[N+](=O)[O-])cc1` was 11.9 µM.
For `CCCCCCCCCCCCCCCC[N+](C)(C)CCN(Cc1ccc(OC)cc1)c1ncccn1`, the AC50 was 4.14 µM.
On to `NC(=O)c1ccc(N=Cc2ccc([N+](=O)[O-])s2)cc1`, for which the AC50 was 1.48 µM.
The value for `COc1ccc(-c2cc(C(=O)N3CCN(c4ccccc4F)CC3)c3ccccc3n2)c(OC)c1` was 4.09 µM.
`CCCCCCCCCCOC(=O)Cn1c(COc2ccc(C)cc2)[n+](C)c2ccccc21`: the AC50 is 25.8 µM.
For the molecule `Cc1ccc(N=Nc2ccc(O)cc2)c(Br)c1`, the AC50 was 8.33 µM.
The value for `Cc1cc(N2CCN(c3cccc(C)c3C)CC2)nc(-c2ccccc2)n1` was 2.47 µM; that for `Cc1c(OCC(=O)C(C)(C)C)ccc2c(-c3ccccc3)cc(=O)oc12` was 8.35 µM.
On to `C[C@@H]1C[C@@H]2O[C@H]2/C=C\C=C\C(=O)Cc2c(Cl)c(O)cc(O)c2C(=O)O1`, for which the AC50 was 2.51 µM.
For the molecule `Cc1ccc(-c2onc3ccc(C(=O)/C=C/N(C)C)cc23)cc1`, the AC50 is 5.98 µM.
The value for `Cc1cc(C)cc(N=Cc2ccc([N+](=O)[O-])s2)c1` was 3.94 µM; that for `COc1ccc(-c2nn(-c3ccccc3)cc2C(=O)N2CCN(S(=O)(=O)c3cccc(F)c3)CC2)cc1` was 1.15 µM; that for `Cc1cc(/C=C2\SC(=S)NC2=O)c(C)n1-c1ccc(O)cc1` was 4.65 µM.
